ChEMBL document CHEMBL2412968, “Tetrazole-based deoxyamodiaquines: synthesis, ADME/PK profiling and pharmacological evaluation as potential antimalarial agents” (Bioorg Med Chem, 2013)
Converted amounts (≈) assume the structure as drawn.

Assays:
Plasmodium falciparum [1] = assay: Antiplasmodial activity chloroquine-sensitive Plasmodium falciparum 3D7 infected in human A+ erythrocytes assessed as reduction of [3H]hypoxanthine incorporation after 24 hrs by scintillation counting; format: functional, organism-based
Plasmodium falciparum [2] = assay: Antiplasmodial activity chloroquine-resistant Plasmodium falciparum K1 infected in human A+ erythrocytes assessed as reduction of [3H]hypoxanthine incorporation after 24 hrs by scintillation counting; format: functional, organism-based
Plasmodium falciparum [3] = assay: Antiplasmodial activity chloroquine-resistant Plasmodium falciparum W2 using YOYO-1 staining after 48 hrs by FACS analysis; format: functional, organism-based; details: W2, 48 h
physchem [4] = details: 0.01 M HCl, pH 2
physchem [5] = details: phosphate buffered saline, pH 7.4
Liver microsomes [6] = assay: Metabolic stability of the compound in rat liver microsomes at 1 uM after 40 mins; format: ADME, Microsome
CHO = assay: Cytotoxicity against CHO cells by MTT assay; format: cell-based; details: Cricetulus griseus
Cytochrome P450 2B6 = molecular target: T1, Cytochrome P450 2B6 (Homo sapiens, UniProt P20813); assay: Inhibition of CYP2B6 in human liver microsomes assessed as bupropion hydroxylation after 20 mins by LC-MS analysis; format: ADME, Microsome
T1 sequence (P20813 whole entry): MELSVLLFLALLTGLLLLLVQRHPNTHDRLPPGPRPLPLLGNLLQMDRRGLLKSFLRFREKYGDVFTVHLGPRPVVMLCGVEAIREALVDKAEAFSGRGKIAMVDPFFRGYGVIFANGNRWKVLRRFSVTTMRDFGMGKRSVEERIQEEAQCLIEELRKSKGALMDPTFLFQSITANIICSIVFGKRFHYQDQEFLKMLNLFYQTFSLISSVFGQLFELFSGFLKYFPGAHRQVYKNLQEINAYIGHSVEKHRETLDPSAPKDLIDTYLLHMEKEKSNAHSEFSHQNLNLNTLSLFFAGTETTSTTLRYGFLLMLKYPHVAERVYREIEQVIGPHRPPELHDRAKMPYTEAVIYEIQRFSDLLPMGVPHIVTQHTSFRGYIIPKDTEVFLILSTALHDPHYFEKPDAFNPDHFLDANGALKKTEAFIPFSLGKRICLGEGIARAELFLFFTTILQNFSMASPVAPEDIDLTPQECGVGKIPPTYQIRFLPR

Cytochrome P450 2C9 = Cytochrome P450 2C9 (Homo sapiens, UniProt P11712); assay: Inhibition of CYP2C9 in human liver microsomes assessed as diclofenac 4'-hydroxylation after 20 mins by LCMS analysis; format: ADME, Microsome
Liver microsomes [7] = assay: Metabolic stability of the compound in human liver microsomes at 1 uM after 40 mins; format: ADME, Microsome
Cytochrome P450 1A2 = molecular target: T2, Cytochrome P450 1A2 (Homo sapiens, UniProt P05177); assay: Inhibition of CYP1A2 in human liver microsomes assessed as phenacetin O-deethylation after 20 mins by LC-MS analysis; format: ADME, Microsome
T2 sequence (P05177 whole entry): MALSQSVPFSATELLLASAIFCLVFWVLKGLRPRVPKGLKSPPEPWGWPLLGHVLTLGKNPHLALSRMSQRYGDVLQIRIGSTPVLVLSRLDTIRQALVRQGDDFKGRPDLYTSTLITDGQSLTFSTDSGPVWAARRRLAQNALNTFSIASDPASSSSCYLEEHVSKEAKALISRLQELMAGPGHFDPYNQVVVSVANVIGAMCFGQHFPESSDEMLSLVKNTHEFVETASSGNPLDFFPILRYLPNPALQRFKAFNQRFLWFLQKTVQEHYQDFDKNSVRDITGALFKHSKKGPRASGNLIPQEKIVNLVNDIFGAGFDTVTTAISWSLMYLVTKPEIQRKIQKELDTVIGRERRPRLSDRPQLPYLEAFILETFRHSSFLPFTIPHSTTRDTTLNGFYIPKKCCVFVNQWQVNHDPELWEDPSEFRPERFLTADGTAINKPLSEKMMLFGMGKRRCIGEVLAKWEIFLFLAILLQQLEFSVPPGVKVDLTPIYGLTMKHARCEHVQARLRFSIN

Cytochrome P450 2E1 = Cytochrome P450 2E1 (Homo sapiens, UniProt P05181); assay: Inhibition of CYP2E1 in human liver microsomes assessed as chlorzoxazone 6-hydroxylation after 20 mins by LC-MS analysis; format: ADME, Microsome
Cytochrome P450 2C8 = molecular target: T3, Cytochrome P450 2C8 (Homo sapiens, UniProt P10632); assay: Inhibition of CYP2C8 in human liver microsomes assessed as paclitaxel 6alpha-hydroxylation after 20 mins by LC-MS analysis; format: ADME, Microsome
T3 sequence (P10632 whole entry): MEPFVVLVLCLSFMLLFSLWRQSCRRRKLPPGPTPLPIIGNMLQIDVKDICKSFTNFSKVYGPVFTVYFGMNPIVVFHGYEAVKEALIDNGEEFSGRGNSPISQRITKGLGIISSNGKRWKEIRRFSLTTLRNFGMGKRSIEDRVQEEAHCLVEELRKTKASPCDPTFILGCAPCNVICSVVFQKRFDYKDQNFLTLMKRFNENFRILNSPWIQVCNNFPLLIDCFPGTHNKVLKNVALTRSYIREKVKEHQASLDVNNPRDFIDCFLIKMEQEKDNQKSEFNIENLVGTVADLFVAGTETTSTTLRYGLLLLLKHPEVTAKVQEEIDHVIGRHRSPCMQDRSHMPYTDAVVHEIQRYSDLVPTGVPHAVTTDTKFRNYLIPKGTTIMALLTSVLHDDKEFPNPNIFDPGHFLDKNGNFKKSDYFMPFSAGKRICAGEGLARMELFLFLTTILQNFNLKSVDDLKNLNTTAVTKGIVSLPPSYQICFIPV

Cytochrome P450 2A6 = molecular target: T4, Cytochrome P450 2A6 (Homo sapiens, UniProt P11509); assay: Inhibition of CYP2A6 in human liver microsomes assessed as coumarin 7-hydroxylation after 20 mins by LC-MS analysis; format: ADME, Microsome
T4 sequence (P11509 whole entry): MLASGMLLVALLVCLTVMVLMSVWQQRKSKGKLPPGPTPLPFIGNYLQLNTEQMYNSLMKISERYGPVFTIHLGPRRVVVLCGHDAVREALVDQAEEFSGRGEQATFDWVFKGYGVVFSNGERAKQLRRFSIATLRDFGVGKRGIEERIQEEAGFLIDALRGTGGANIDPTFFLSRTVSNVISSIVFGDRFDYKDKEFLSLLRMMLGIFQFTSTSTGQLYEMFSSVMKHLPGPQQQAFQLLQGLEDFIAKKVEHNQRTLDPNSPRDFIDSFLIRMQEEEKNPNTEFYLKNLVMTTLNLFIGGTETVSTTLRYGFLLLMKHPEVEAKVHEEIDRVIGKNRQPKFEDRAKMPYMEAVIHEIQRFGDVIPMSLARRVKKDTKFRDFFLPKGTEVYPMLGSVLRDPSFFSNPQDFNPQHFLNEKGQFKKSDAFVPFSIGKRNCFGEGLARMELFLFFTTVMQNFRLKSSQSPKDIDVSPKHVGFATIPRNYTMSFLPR

Hepatocyte [8] = assay: Drug metabolism in human hepatocytes assessed as formation of N-dealkylation product at 5 uM after 1 hr; format: ADME, cell-based
Cytochrome P450 2D6 = Cytochrome P450 2D6 (Homo sapiens, UniProt P10635); assay: Inhibition of CYP2D6 in human liver microsomes assessed as bufuralol 1'-hydroxylation after 20 mins by LCMS analysis; format: ADME, Microsome
Liver microsomes [9] = assay: Drug metabolism in human liver microsomes assessed as formation of N-dealkylation product at 5 uM after 1 hr; format: ADME, Microsome
Cytochrome P450 3A4 = Cytochrome P450 3A4 (Homo sapiens, UniProt P08684); assay: Inhibition of CYP3A4 in human liver microsomes assessed as midazolam 1'-hydroxylation after 20 mins by LCMS analysis; format: ADME, Microsome
[10] = Cmax in albino Wistar rat at 10 mg/kg, po; format: ADME, organism-based; set-up: dose 10 mg/kg, route oral; details: in vivo
[11] = Half life in albino Wistar rat at 1 mg/kg, iv; format: ADME, organism-based; set-up: dose 1 mg/kg, route intravenous; details: in vivo
[12] = AUC (infinity) in albino Wistar rat at 10 mg/kg, po; format: ADME, organism-based; set-up: time infinity, dose 10 mg/kg, route oral; details: plasma
[13] = Volume of distribution at steady state in albino Wistar rat at 1 mg/kg, iv; format: ADME, organism-based; set-up: dose 1 mg/kg, route intravenous; details: in vivo, read-out: Vdss
Hepatocyte [14] = assay: Metabolic stability in human hepatocytes assessed as level of GSH adduct at 5 uM after 1 hr; format: ADME, cell-based
[15] = Oral bioavailability in albino Wistar rat at 10 mg/kg; format: ADME, organism-based; details: in vivo
[16] = Clearance in albino Wistar rat at 1 mg/kg, iv; format: ADME, organism-based; set-up: dose 1 mg/kg, route intravenous; details: in vivo
Hepatocyte [17] = assay: Metabolic stability in rat hepatocytes assessed as level of GSH adduct at 5 uM after 1 hr; format: ADME, cell-based
[18] = AUC (infinity) in albino Wistar rat at 1 mg/kg, iv; format: ADME, organism-based; set-up: time infinity, dose 1 mg/kg, route intravenous; details: plasma
Hepatocyte [19] = assay: Drug metabolism in rat hepatocytes assessed as formation of oxidation product at 5 uM after 1 hr; format: ADME, cell-based
Liver microsomes [20] = assay: Drug metabolism in rat liver microsomes assessed as formation of N-dealkylation product at 5 uM after 1 hr; format: ADME, Microsome
Liver microsomes [21] = assay: Metabolic stability in human liver microsomes assessed as level of GSH adduct at 5 uM after 1 hr; format: ADME, Microsome
[22] = Tmax in albino Wistar rat at 10 mg/kg, po; format: ADME, organism-based; set-up: dose 10 mg/kg, route oral; details: in vivo
Liver microsomes [23] = assay: Metabolic stability in rat liver microsomes assessed as level of GSH adduct at 5 uM after 1 hr; format: ADME, Microsome
Cytochrome P450 2C19 = Cytochrome P450 2C19 (Homo sapiens, UniProt P33261); assay: Inhibition of CYP2C19 in human liver microsomes assessed as S-mephenytoin 4'-hydroxylation after 20 mins by LCMS analysis; format: ADME, Microsome
Chain of Cytochrome P450 2C19 (P33261 whole entry): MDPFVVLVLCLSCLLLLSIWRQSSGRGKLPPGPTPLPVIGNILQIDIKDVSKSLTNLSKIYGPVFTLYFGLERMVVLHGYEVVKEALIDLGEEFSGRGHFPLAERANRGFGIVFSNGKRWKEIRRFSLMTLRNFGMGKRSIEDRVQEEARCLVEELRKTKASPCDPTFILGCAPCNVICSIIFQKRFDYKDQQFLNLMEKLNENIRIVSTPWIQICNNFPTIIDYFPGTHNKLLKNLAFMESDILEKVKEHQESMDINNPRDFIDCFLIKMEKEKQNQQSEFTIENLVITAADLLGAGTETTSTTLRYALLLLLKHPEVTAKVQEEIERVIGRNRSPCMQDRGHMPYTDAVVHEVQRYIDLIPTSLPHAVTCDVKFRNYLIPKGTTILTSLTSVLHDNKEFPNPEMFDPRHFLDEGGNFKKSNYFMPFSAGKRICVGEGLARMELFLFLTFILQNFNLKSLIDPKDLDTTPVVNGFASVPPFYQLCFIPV

Chain of Cytochrome P450 2D6 (P10635 whole entry): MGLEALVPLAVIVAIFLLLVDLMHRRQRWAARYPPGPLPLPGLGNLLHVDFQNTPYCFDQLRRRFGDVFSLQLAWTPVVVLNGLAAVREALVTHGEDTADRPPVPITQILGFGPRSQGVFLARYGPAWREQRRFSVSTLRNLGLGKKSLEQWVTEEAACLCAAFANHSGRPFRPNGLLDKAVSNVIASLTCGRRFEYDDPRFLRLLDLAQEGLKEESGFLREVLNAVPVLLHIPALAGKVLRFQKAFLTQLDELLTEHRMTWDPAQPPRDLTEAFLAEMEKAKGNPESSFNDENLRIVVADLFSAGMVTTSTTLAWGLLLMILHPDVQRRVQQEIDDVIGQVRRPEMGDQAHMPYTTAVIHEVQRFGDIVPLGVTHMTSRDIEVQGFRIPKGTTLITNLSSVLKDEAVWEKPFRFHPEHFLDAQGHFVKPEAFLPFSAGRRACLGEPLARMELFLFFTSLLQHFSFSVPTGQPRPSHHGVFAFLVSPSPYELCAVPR
Chain of Cytochrome P450 2C9 (P11712 whole entry): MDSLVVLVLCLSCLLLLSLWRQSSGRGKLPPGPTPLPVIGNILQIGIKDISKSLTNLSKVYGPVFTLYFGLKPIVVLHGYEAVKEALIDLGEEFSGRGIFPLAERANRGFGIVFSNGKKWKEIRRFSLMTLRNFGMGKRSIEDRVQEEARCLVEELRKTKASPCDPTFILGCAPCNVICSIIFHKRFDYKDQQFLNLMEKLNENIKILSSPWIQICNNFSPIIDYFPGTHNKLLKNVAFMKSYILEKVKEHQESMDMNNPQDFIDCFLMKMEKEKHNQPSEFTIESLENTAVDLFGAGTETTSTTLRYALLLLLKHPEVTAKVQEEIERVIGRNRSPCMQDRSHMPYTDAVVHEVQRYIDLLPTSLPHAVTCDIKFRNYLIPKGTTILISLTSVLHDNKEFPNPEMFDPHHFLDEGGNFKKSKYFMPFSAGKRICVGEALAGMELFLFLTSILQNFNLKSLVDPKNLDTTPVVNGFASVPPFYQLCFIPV
Chain of Cytochrome P450 2E1 (P05181 whole entry): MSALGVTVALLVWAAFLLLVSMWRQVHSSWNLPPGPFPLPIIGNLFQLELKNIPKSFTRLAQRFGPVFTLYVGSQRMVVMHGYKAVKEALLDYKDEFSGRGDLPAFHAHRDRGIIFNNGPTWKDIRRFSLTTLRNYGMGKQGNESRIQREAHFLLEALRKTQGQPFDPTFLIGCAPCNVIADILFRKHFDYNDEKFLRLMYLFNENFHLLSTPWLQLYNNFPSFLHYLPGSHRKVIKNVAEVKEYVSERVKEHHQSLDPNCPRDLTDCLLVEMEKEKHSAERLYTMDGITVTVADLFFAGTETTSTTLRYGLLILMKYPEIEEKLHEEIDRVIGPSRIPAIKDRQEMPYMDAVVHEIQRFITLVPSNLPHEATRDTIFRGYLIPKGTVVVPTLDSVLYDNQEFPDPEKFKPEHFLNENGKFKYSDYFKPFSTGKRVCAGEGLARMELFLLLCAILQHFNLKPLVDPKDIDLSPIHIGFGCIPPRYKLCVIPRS
Chain of Cytochrome P450 3A4 (P08684 whole entry): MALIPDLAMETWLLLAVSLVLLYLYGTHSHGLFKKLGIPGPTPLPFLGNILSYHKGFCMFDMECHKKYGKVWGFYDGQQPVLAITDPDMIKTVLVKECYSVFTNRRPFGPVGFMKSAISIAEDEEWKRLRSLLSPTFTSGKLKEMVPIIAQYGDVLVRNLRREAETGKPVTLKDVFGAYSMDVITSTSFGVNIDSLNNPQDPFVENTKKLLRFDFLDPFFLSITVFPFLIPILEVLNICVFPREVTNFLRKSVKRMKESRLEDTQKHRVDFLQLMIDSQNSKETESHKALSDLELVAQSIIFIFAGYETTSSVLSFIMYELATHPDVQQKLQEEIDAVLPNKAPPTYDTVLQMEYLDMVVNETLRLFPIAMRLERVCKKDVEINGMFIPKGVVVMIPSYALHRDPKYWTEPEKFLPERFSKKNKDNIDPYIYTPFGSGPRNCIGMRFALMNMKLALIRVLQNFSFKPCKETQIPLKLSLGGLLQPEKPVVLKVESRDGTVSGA

Structure (SMILES): CCN(CC)Cc1cc(Nc2ccnc3cc(Cl)ccc23)ccc1O
- IC50 (Plasmodium falciparum [1]): 1 nM
- IC50 (Plasmodium falciparum [2]): 27 nM
- IC50 (Plasmodium falciparum [3]): 401 nM

Structure (SMILES): CN(C)C(c1cccc(Nc2ccnc3cc(Cl)ccc23)c1)c1nnnn1C(C)(C)C (stereo not given)
- IC50 (Plasmodium falciparum [1]): 52 nM
- IC50 (Plasmodium falciparum [2]): 150 nM
- solubility kinetic at 2 h (physchem [4]): > 200 µM
- IC50 (Plasmodium falciparum [3]): 227 nM
- solubility kinetic at 2 h (physchem [5]): 7.3 µM (≈ 3.18 µg/mL)

Structure (SMILES): CCN(CC)C(c1cccc(Nc2ccnc3cc(Cl)ccc23)c1)c1nnnn1C(C)(C)C (stereo not given)
- IC50 (Plasmodium falciparum [1]): 100 nM
- IC50 (Plasmodium falciparum [2]): 6 nM
- Stability (Liver microsomes [6]): Unstable
- IC50 (CHO): 111000 nM
- IC50 (Cytochrome P450 2B6): > 20000 nM
- IC50 (Cytochrome P450 2C9): 2430 nM
- Stability (Liver microsomes [7]): Unstable
- IC50 (Cytochrome P450 1A2): 4330 nM
- IC50 (Cytochrome P450 2E1): > 20000 nM
- IC50 (Cytochrome P450 2C8): 220 nM
- IC50 (Cytochrome P450 2A6): > 20000 nM
- solubility kinetic at 2 h (physchem [4]): > 200 µM
- IC50 (Plasmodium falciparum [3]): 66 nM
- Drug metabolism (Hepatocyte [8]): Active
- IC50 (Cytochrome P450 2D6): 2310 nM
- Drug metabolism (Liver microsomes [9]): Active
- solubility kinetic at 2 h (physchem [5]): < 5 µM

Structure (SMILES): CC(C)(C)n1nnnc1C(c1cccc(Nc2ccnc3cc(Cl)ccc23)c1)N1CCCC1 (stereo not given)
- IC50 (Plasmodium falciparum [1]): 10 nM
- IC50 (Cytochrome P450 3A4): 1450 nM
- Cmax [10]: 13.3 ng/mL
- IC50 (Plasmodium falciparum [2]): 9.6 nM
- Stability (Liver microsomes [6]): Unstable
- half-life [11]: 51 min
- IC50 (CHO): 117000 nM
- AUC(0-inf) [12]: 21 ng·h/mL
- IC50 (Cytochrome P450 2B6): > 20000 nM
- IC50 (Cytochrome P450 2C9): 3140 nM
- Stability (Liver microsomes [7]): Unstable
- Vd [13]: 12.2 L/kg
- Stability (Hepatocyte [14]): Stable
- bioavailability [15]: 3.3%
- clearance [16]: 278 mL/min/kg
- IC50 (Cytochrome P450 1A2): 2540 nM
- Stability (Hepatocyte [17]): Stable
- IC50 (Cytochrome P450 2E1): > 20000 nM
- AUC(0-inf) [18]: 63.5 ng·h/mL
- Drug metabolism (Hepatocyte [19]): Active
- IC50 (Cytochrome P450 2C8): 120 nM
- Drug metabolism (Liver microsomes [20]): Active
- Stability (Liver microsomes [21]): Stable
- Tmax [22]: 15 min
- IC50 (Cytochrome P450 2A6): > 20000 nM
- Stability (Liver microsomes [23]): Stable
- solubility kinetic at 2 h (physchem [4]): > 200 µM
- IC50 (Plasmodium falciparum [3]): 77 nM
- IC50 (Cytochrome P450 2D6): 3460 nM
- solubility kinetic at 2 h (physchem [5]): < 5 µM
- IC50 (Cytochrome P450 2C19): 13800 nM

Structure (SMILES): CC(C)(C)n1nnnc1C(c1cccc(Nc2ccnc3cc(Cl)ccc23)c1)N1CCCCC1 (stereo not given)
- IC50 (Plasmodium falciparum [1]): 50 nM
- IC50 (Plasmodium falciparum [2]): 170 nM
- solubility kinetic at 2 h (physchem [4]): > 200 µM
- IC50 (Plasmodium falciparum [3]): 82 nM
- solubility kinetic at 2 h (physchem [5]): < 5 µM

Structure (SMILES): CC(C)(C)n1nnnc1C(c1cccc(Nc2ccnc3cc(Cl)ccc23)c1)N1CCOCC1 (stereo not given)
- IC50 (Plasmodium falciparum [1]): 99 nM
- IC50 (Plasmodium falciparum [2]): 1290 nM
- IC50 (Plasmodium falciparum [3]): 195 nM

Structure (SMILES): CN(C)C(c1cccc(Nc2ccnc3cc(Cl)ccc23)c1)c1nnnn1CCN1CCOCC1 (stereo not given)
- IC50 (Plasmodium falciparum [1]): 379 nM
- IC50 (Plasmodium falciparum [2]): 379 nM
- IC50 (Plasmodium falciparum [3]): 544 nM

Structure (SMILES): CCN(CC)C(c1cccc(Nc2ccnc3cc(Cl)ccc23)c1)c1nnnn1CCN1CCOCC1 (stereo not given)
- IC50 (Plasmodium falciparum [1]): 30 nM
- IC50 (Plasmodium falciparum [2]): 245 nM
- IC50 (Plasmodium falciparum [3]): 194 nM
